For one compound, viability results are on record in doi:10.1101/2024.05.29.596450v1 (biorxiv, 2024).

This test concerns Staphylococcus aureus MRSA (ATCC BAA-44). Put plainly: microbe, parasite or virus in culture. Particulars: ATCCBAA44|MRSA, 18 h, read-out: %viability. More on the design: species or system Staphylococcus aureus ATCC BAA-44.

The term viability denotes a read-out of living cells in per cent, often relative to untreated cells.

Take `CC1(C)S[C@@H]2[C@H](NC(=O)[C@H](N)c3ccc(O)cc3)C(=O)N2[C@H]1C(=O)O` [Amoxicillin]: the viability at 50 µM stood at 85%.
